Measured values reported in PubChem BioAssay (NCI).
“And” between values parts separate entries of the source, which are not always exact repeats. Equal entries are not always repeated.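 All cell lines were grown in 96-well plates and treated with compound for 48 hours. GI50 marks 50% less growth. Definition used: TGI = concentration required for complete inhibition of growth.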

What was measured:
Test in all cases: NCI anticancer screen, dose series, 48 h
[1] = tested on: SNB-19 CNS
[2] = tested on: PC-3 prostate
[3] = tested on: ACHN renal
[4] = tested on: U251 CNS
[5] = tested on: BT-549 breast
[6] = tested on: UO-31 renal
[7] = tested on: SN12C renal
[8] = tested on: OVCAR-3 ovarian
[9] = tested on: UACC-62 melanoma
[10] = tested on: HCT-116 colon

Compound	TGI [1] [µM]	TGI [2] [µM]	TGI [3] [µM]	TGI [4] [µM]	TGI [5] [µM]	TGI [6]	TGI [7] [µM]	TGI [8] [µM]	TGI [9]	TGI [10] [µM]	GI50 [1]	GI50 [2]	GI50 [3]	GI50 [4]	GI50 [5]	GI50 [6] [µM]	GI50 [7] [µM]	GI50 [8] [µM]	GI50 [9] [µM]	GI50 [10] [µM]
CN(CCNC(=S)c1cn(C)c2c1ccc1ccccc12)CCNC(=S)c1cn(C)c2c1ccc1ccccc12	> 100	> 100	> 100	> 100	> 100	> 100 µM	> 100	> 100	> 100 µM	> 100										
COC(=O)c1ccc(C=C(C#N)C#N)cc1	> 100		56.9	61.5			41.6	67.5	57.6 µM	31.5										
COC(=O)[C@@]1(NC(=O)C(CC(=O)OC(C)(C)C)NC(=O)OC(C)(C)C)C[C@H]1C (some centres not stated)	> 100	> 100	> 100	> 100	> 100	> 100 µM	> 100	> 100	> 100 µM	> 100										
NC(=O)c1sc2nc3ccccc3n2c1N	> 100	> 100	> 100	87.4	76.8	> 100 µM		> 100	> 100 µM	> 100										
O=C(O)CCCc1ccccc1	> 1000	> 1000	> 1000	> 1000	> 1000	715 µM and > 1000 µM	> 1000	> 1000	587 µM and > 1000 µM	> 1000	537 µM and > 1000 µM	364 µM and > 1000 µM	436 µM and > 1000 µM	292 µM and > 1000 µM	242 µM and > 1000 µM	> 1000	> 1000	537	> 1000	> 1000
CC(C)=CCC/C(C)=C/CCC1(C)C=Cc2c(c3ccccc3oc2=O)O1 (configuration not stated)	37.7			28.8		28.8 µM	32	32.7	24 µM	28										
COc1cc(C(=O)O)c(-c2cc3c(cc2C=O)OCO3)c(OC)c1OC	> 10	> 10	> 10	> 10	> 10		> 10	> 10	> 10 µM	> 10										
c1n[nH]cc1C12C3C4C5C3C1C5C42 (configuration not stated)	> 100	> 100	> 100	> 100	> 100	> 100 µM	> 100	> 100	> 100 µM	> 100										
COc1ccc(C(=O)Oc2c(C#N)sc3c2c(=O)n(-c2ccccc2)c(=S)n3-c2ccccc2)cc1	> 100	98.7	> 100	> 100		3.94 µM	68.2	97.4	24.5 µM	48.9										
CCC(C)N1CN(c2ccccc2)C2(CCN(CCCSc3ccc(F)cc3)CC2)C1=O (configuration not stated)	19.7	19.4	9.76	13.7	6.99	6.61 µM	> 100	7.25	17.5 µM	10.1										
O=C1/C(=C/c2cccs2)NC(=S)N1CN1CCCCC1	> 100	> 100	> 100	> 100		> 100 µM	> 100	> 100	> 100 µM	> 100										
CN(C)C(F)=PC(F)(F)F (configuration not stated)	> 100		> 100	> 100		> 100 µM	> 100		> 100 µM	> 100										
O=C(Nc1ccc2[nH]c(C(=O)N3CC(CCl)c4ccc([N+](=O)[O-])cc43)cc2c1)c1cc2ccccc2o1 (configuration not stated)	> 1100			> 1100	> 1100	> 1100 µM	> 1100	> 1100	> 1100 µM	> 1100										
COc1cc(-c2cc(=O)c3ccccc3[nH]2)cc(OC)c1OC	> 75		> 75	> 75		> 75 µM	> 75	> 75	> 75 µM	> 75										
CSC(=N)N1N=C2/C(=C/c3ccccc3)CCC[C@H]2[C@H]1c1ccccc1	19.3		11.8	25.9		13.4 µM	14.1	23.8	23.9 µM	9.83										
CC(C)N(C(=O)C12C3C4C1C1C2C3C41C(=O)N(C(C)C)C(C)C)C(C)C (configuration not stated)	> 50		> 50	> 50		> 50 µM	> 50	> 50	> 50 µM	> 50										
CC1SC(c2ccc(Cl)cc2)N(CCc2cccs2)C1=O (configuration not stated)	3.31	5.07	4.89	3.18	2.81		3.15	2.74	2.35 µM	2.28	1.65 µM	1.75 µM	1.88 µM	1.63 µM	1.49 µM		1.7	1.42	1.05	1.09
Cc1c(C2=NN=C(N=Nc3c(O)cccc3O)/C2=C/c2ccccc2)c(=O)n(-c2ccccc2)n1C	> 100			> 100		> 100 µM	> 100	> 100	> 100 µM	> 100										
C=C(CCC=C(C)C)C1CC=C(C)CC1 (configuration not stated)	> 100		33.4	34.8	> 100	30.6 µM	41.3	81.2	> 100 µM	57.9										
C/C(N=NS(=O)(=O)c1ccc(C)cc1)=C1\C=CC=CN1O	> 100		> 100	> 100		> 100 µM	> 100	> 100	> 100 µM	> 100										
NC(CCCCNCc1ccccc1O)C(=O)O (configuration not stated)	> 100		> 100	> 100		> 100 µM	> 100	> 100	> 100 µM	> 100										
CSc1ccc2c(cc1=O)C(NC(=O)c1ccc(C#N)cc1)CCc1cc(O)c(O)c(O)c1-2 (configuration not stated)	> 100		> 100	45.3		> 100 µM	40.3	> 100	46.3 µM	32.5										
